Assay results taken from patent US20030130225A1, “Novel methods of treating local fungal and bacterial infections” (priority 2001, published 2003).
Read-outs that look alike come from different tables or passages of the source.

Legend:
[1] = tested on: Candida albicans; details: for rabbits with no Candida albicans in culture of the vaginal mucosa: 72 hours post dosage
Text: Thirty-five female albino rabbits vaginally infected with Candida albicans were randomly assigned to seven dosage groups, 5 rabbits per group.

[2] = tested on: Candida vaginitis; details: single dose oral; cited from earlier work
[3] = human, in vivo, po; cited from earlier work

For `OC(Cn1cncn1)(Cn1cncn1)c1ccc(F)cc1F` [Fluconazole, fluconazole], the “rabbits with no Candida albicans in culture of the vaginal mucosa” value (“rabbits with no Candida albicans” for short) ([1]; 0.5 mg/kg oral fluconazole once) was 40%, the “rabbits with no Candida albicans” value ([1]; 1.0 mg/kg oral fluconazole once) was 100% and the “rabbits with no Candida albicans” value ([1]; 2.0 mg/kg oral fluconazole once) was 60%. For the same compound, the “irritation to the vaginal epithelium” value ([1]; rabbit, in vivo) was “mild irritation”, the “average time for the onset of symptom relief” value [2] was “about 2.4 days” and the “time to reach peak plasma concentration” value [3] was “about 3 hours”. The “time to reach vaginal tissue and vaginal fluid” value [3] was 2 to 3 days.
